Results as given in patent publication US8933019B2, “Antiviral cell-penetrating peptides” (priority 2008, dated 2015).
Bridge positions count the residues as written; N and C are the ends. Square brackets hold non-standard residues; d marks the D form. Peptide text beside a SMILES is read from it. S5 = C=CCCC[C@](C)(N)C(=O)O

Assays:
Format in all cases: cell-based
HIV-1 IIIB = experiment: Release and infectivity of HIV-1 virus released from infected MT-2 cells after treatment; details: lower dose 6.25 μg/ml, normalized for p24, TCID50
Protocol: On the fourth day post-infection, the supernatants were collected and filtered with a 0.45 μm PVDF membrane. One aliquot of the supernatants from each sample was mixed 1:1 with a solution of 5% Triton X-100 for p24 quantification, and stored at 4° C., another aliquot was immediately frozen at −80° C. and used to compare the infectivity of the viral particles released by NYAD-201 and NYAD-202 treated cells to the viral particles released by untreated cells. The protein p24 was first quantified by sandwich-ELISA, then the viral samples were normalized for the p24 content and titered to calculate the TCID50. MT-2 cells were infected with a two fold dilutions of virus from NYAD-201 and NYAD-202 treated and untreated cells. […] On the fourth day post infection supernatants were collected for p24 quantification by sandwich-ELISA and the TCID50 was calculated by the Spearman-Karber statistical method. […]
For these reasons, not only the quantity but also the quality of the viral particles released in the supernatant was evaluated. First, the p24/viral particles released in the supernatant following NYAD-201 and NYAD-202 treatment were quantified, then starting with the same amount of p24 per sample, the viruses released in the supernatant were titered. The TCID50 was calculated and expressed as percentage infectivity with respect to the untreated positive control. […]

HIV-1 89.6 = details: laboratory strain, subtype B, PBMC, coreceptor R5X4; read-out: IC50 (μM ± SD), HIV-1 89.6
Protocol: (§1) The inhibitory activity of peptides on infection by primary HIV-1 isolates was determined as previously described (Jiang et al., Antimicrob. Agents Chemother. 48:4349-4359, 2004). Peripheral blood mononuclear cells (PBMCs) were isolated from the blood of healthy donors at the New York Blood Center by standard density gradient centrifugation using Histopaque-1077 (Sigma-Aldrich). The cells were cultured at 37° C. for 2 hr. Nonadherent cells were collected and resuspended at 5×10^6 cells/ml RPMI-1640 medium containing 10% FBS, 5 μg/ml PHA, and 100 U/ml IL-2 (Sigma-Aldrich), followed by incubation at 37° C. for 3 days. The PHA-stimulated cells (5×10^4 cells/well) were infected with primary HIV-1 isolates at 500 TCID50 (0.01 MOI) in the absence or presence of peptide inhibitor at graded concentrations. Culture media were changed every 3 days and replaced with fresh media containing freshly prepared inhibitor. The supernatants were collected 7 days post-infection and tested for p24 antigen by ELISA (FIG. 6). The percent inhibition of p24 production, IC50 and IC90 values were calculated by the GraphPad Prism software (GraphPad Software Inc.).
(§2) In addition, NYAD-201, NYAD-202 and NYAD-203 were also tested using several laboratory-adapted and primary isolates in MT-2 cells and PBMC (peripheral blood mononuclear cells), respectively. The inhibition of p24 production in MT-2 cells by NYAD-201 and its analogs were measured over a range of concentrations and the concentration required to inhibit 50% (IC50) of the p24 production was calculated. […] NYAD-201 and its analogs inhibited the laboratory strains with low μM potency (IC50˜2-8 μM), and both R5- and X4-tropic viruses were inhibited with similar potency.

HIV-1 BaL = details: laboratory strain, subtype B, PBMC, coreceptor R5; read-out: IC50 (μM ± SD), HIV-1 BaL
Protocol: as §1, §2

HIV-1 93RW024 = experiment: Inhibition of primary HIV-1 isolate, p24 ELISA, PBMC; details: subtype A, coreceptor R5X4, read-out: IC50 (μM ± SD), HIV-1 93RW024
Protocol: as §1
(§3) NYAD-201, NYAD-202 and NYAD-203 were also tested against a set of primary HIV-1 isolates in PBMC representing mostly group M and one from group O with diverse coreceptor usage. […] The inhibitory activities of the peptides against this diverse range of primary isolates were similar, indicating its effectiveness against a wide range of HIV-1 isolates.

HIV-1 RU570 = experiment: as above; details: subtype G, coreceptor R5, read-out: IC50 (μM ± SD), HIV-1 RU570
Protocol: as §1, §3

HIV-1 CMU02 = experiment: as above; details: subtype EA, coreceptor X4, read-out: IC50 (μM ± SD), HIV-1 CMU02
Protocol: as §1, §3

HIV-1 93IN101 = experiment: as above; details: subtype C, coreceptor R5, read-out: IC50 (μM ± SD), HIV-1 93IN101
Protocol: as §1, §3

CSCC[C@@H]1NC(=O)[C@H](Cc2c[nH]c3ccccc23)NC(=O)[C@@](C)(NC(=O)[C@H](CCCCN)NC(=O)[C@@H](NC(=O)[C@H](CCC(=O)O)NC(=O)[C@H](CCC(N)=O)NC(=O)[C@H](C)N)C(C)C)CCCC=CCCC[C@@](C)(C(=O)N[C@H](C(=O)N[C@@H](CC(C)C)C(=O)N[C@@H](CC(C)C)C(=O)N[C@H](C(=O)N[C@@H](C)C(N)=O)C(C)C)[C@@H](C)O)NC(=O)[C@H]([C@@H](C)O)NC1=O [NYAD-201, AQEVKXWMTXTLLVA] (H-AQEVK[S5]WMT[S5]TLLVA-NH2; staple 6-10)
Percentage infectivity of virus produced by treated cells with respect to untreated control (HIV-1 IIIB): 50% | IC50 (HIV-1 89.6): 5.21 ± 0.87 µM | IC50 (HIV-1 BaL): 4.73 ± 1.92 µM | IC50 (HIV-1 93RW024): 9.88 ± 0.3 µM | IC50 (HIV-1 RU570): 7.48 ± 1.21 µM | IC50 (HIV-1 CMU02): 7.36 ± 0.69 µM | IC50 (HIV-1 93IN101): 1.58 ± 0.57 µM
